PubChem BioAssay (NCI)
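96-well plates; 48 h exposure; 5 concentrations. Endpoints by linear interpolation between flanking doses. Not reached: highest tested concentration assigned. The concentration for full growth arrest is given as TGI.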

Legend:
Experiment in all cases: NCI-60 cell line screen, 48 h
[1] = system: SK-MEL-5 melanoma
[2] = system: TK-10 renal
[3] = system: NCI-H460 lung
[4] = system: MALME-3M melanoma
[5] = system: OVCAR-3 ovarian
[6] = system: HOP-62 NSCLC
[7] = system: T-47D breast
[8] = system: MDA-MB-231 breast
[9] = system: RPMI-8226 leukemia
[10] = system: CAKI-1 renal
[11] = system: M14 melanoma
[12] = system: MDA-N
[13] = system: HL-60(TB) leukemia
[14] = system: OVCAR-8 ovarian
[15] = system: EKVX NSCLC
[16] = system: HOP-92 NSCLC
[17] = system: NCI-H226 lung
[18] = system: KM12 colon
[19] = system: MCF7 breast
[20] = system: ACHN renal
[21] = system: HT29 colon
[22] = system: A549 NSCLC
[23] = system: COLO 205 colon
[24] = system: UACC-62 melanoma
[25] = system: U251 CNS
[26] = system: LOX IMVI melanoma
[27] = system: A498 renal
[28] = system: BT-549 breast
[29] = system: NCI-H23 lung
[30] = system: SK-MEL-2 melanoma
[31] = system: SW-620 colon
[32] = system: SNB-19 CNS
[33] = system: OVCAR-4 ovarian
[34] = system: SF-268 CNS
[35] = system: MDA-MB-435
[36] = system: SK-MEL-28 melanoma
[37] = system: CCRF-CEM leukemia
[38] = system: UO-31 renal
[39] = system: SN12C renal
[40] = system: HCT-15 colon
[41] = system: NCI/ADR-RES ovarian
[42] = system: SF-295 CNS
[43] = system: OVCAR-5 ovarian
[44] = system: K-562 leukemia
[45] = system: 786-0 renal
[46] = system: UACC-257 melanoma
[47] = system: NCI-H522 lung
[48] = system: HS 578T breast
[49] = system: IGROV1 ovarian
[50] = system: DU-145 prostate
[51] = system: HCT-116 colon
[52] = system: PC-3 prostate
[53] = system: MOLT-4 leukemia
[54] = system: SF-539 CNS
[55] = system: HCC-2998 colon
[56] = system: SNB-75 CNS
[57] = system: RXF 393 renal
[58] = system: SK-OV-3 ovarian
[59] = system: SR leukemia

Compound `COc1cc(NS(C)(=O)=O)ccc1Nc1cc[nH]c2ccc3nccc3c12` has a TGI [1] of 29.8 µM, a TGI [2] of 30.3 µM and a TGI [3] of 34.5 µM. The TGI [4] was 28.7 µM, the TGI [5] was 29.4 µM and the TGI [6] was 30.6 µM. It also gave a TGI [7] of 33.2 µM, a TGI [8] of 25 µM and a TGI [9] of 31.7 µM. The TGI [10] was 32.5 µM, the TGI [11] was 32.2 µM and the TGI [12] was 30.8 µM. It also gave a TGI [13] of 53.2 µM, a TGI [14] of 28.8 µM and a TGI [15] of 51.3 µM. It also gave a TGI [16] of 24.8 µM, a TGI [17] of 36.9 µM and a TGI [18] of 28.2 µM. The TGI [19] was 35.9 µM, the TGI [20] was 32.8 µM and the TGI [21] was 31.3 µM. The TGI [22] was 34.9 µM, the TGI [23] was 41.4 µM and the TGI [24] was 32.5 µM. The TGI [25] was 27.3 µM, the TGI [26] was 36 µM and the TGI [27] was 30.7 µM. For the same compound, the TGI [28] was 28.7 µM, the TGI [29] was 29.8 µM and the TGI [30] was 30.9 µM. The TGI [31] was 41 µM, the TGI [32] was 29.9 µM and the TGI [33] was 29.7 µM. The TGI [34] was 25 µM, the TGI [35] was 30.1 µM and the TGI [36] was 31.2 µM. It also gave a TGI [37] of 40.9 µM, a TGI [38] of over 100 µM and a TGI [39] of 28.2 µM. The TGI [40] was over 100 µM, the TGI [41] was over 100 µM and the TGI [42] was 32.9 µM. The TGI [43] was 30.8 µM, the TGI [44] was 25.7 µM and the TGI [45] was 27.7 µM. It also gave a TGI [46] of 33.2 µM, a TGI [47] of 22.6 µM and a TGI [48] of over 100 µM. The TGI [49] was 31.2 µM, the TGI [50] was 27.7 µM and the TGI [51] was 24.7 µM. It also gave a TGI [52] of 26 µM.
`NC1=CN(CCCO)C2=N/C(=C\c3ccccc3)C(=O)N12` showed a TGI [1] of over 100 µM, a TGI [2] of over 100 µM and a TGI [3] of over 100 µM. The TGI [4] was over 100 µM, the TGI [53] was over 100 µM and the TGI [5] was over 100 µM. It also gave a TGI [6] of over 100 µM, a TGI [7] of over 100 µM and a TGI [8] of over 100 µM. It also gave a TGI [9] of over 100 µM, a TGI [10] of over 100 µM and a TGI [54] of over 100 µM. It also gave a TGI [11] of over 100 µM, a TGI [12] of over 100 µM and a TGI [13] of over 100 µM. The TGI [14] was over 100 µM, the TGI [15] was over 100 µM and the TGI [55] was over 100 µM. The TGI [16] was over 100 µM, the TGI [17] was over 100 µM and the TGI [18] was over 100 µM. It also gave a TGI [19] of over 100 µM, a TGI [20] of over 100 µM and a TGI [21] of over 100 µM. For the same compound, the TGI [22] was over 100 µM, the TGI [23] was over 100 µM and the TGI [24] was over 100 µM. The TGI [25] was over 100 µM, the TGI [56] was over 100 µM and the TGI [26] was over 100 µM. The TGI [27] was over 100 µM, the TGI [28] was over 100 µM and the TGI [29] was over 100 µM. For the same compound, the TGI [30] was over 100 µM, the TGI [31] was over 100 µM and the TGI [32] was over 100 µM. The TGI [33] was over 100 µM, the TGI [34] was over 100 µM and the TGI [35] was over 100 µM. The TGI [36] was over 100 µM, the TGI [37] was over 100 µM and the TGI [57] was over 100 µM. The TGI [38] was over 100 µM, the TGI [39] was over 100 µM and the TGI [40] was over 100 µM. The TGI [41] was over 100 µM, the TGI [42] was over 100 µM and the TGI [43] was over 100 µM. For the same compound, the TGI [44] was over 100 µM, the TGI [45] was over 100 µM and the TGI [46] was over 100 µM. For the same compound, the TGI [47] was over 100 µM, the TGI [48] was over 100 µM and the TGI [49] was over 100 µM. The TGI [50] was over 100 µM, the TGI [51] was over 100 µM and the TGI [52] was over 100 µM. The TGI [58] was over 100 µM.
For `C#C[C@]1(O)CC[C@H]2[C@@H]3CCC4=C/C(=N/OCCN(C)C)CC[C@]4(C)[C@H]3CC[C@@]21C`, the TGI [1] was 78.3 µM, the TGI [2] was over 100 µM and the TGI [3] was over 100 µM. For the same compound, the TGI [4] was 60.6 µM, the TGI [53] was over 100 µM and the TGI [5] was 65.2 µM. For the same compound, the TGI [6] was over 100 µM, the TGI [7] was over 100 µM and the TGI [8] was over 100 µM. It also gave a TGI [9] of over 100 µM, a TGI [10] of over 100 µM and a TGI [11] of 35.2 µM. For the same compound, the TGI [12] was 35.1 µM, the TGI [14] was over 100 µM and the TGI [15] was over 100 µM. For the same compound, the TGI [59] was 67.5 µM, the TGI [55] was over 100 µM and the TGI [16] was over 100 µM. It also gave a TGI [17] of 85.8 µM, a TGI [18] of over 100 µM and a TGI [19] of over 100 µM. It also gave a TGI [20] of over 100 µM, a TGI [21] of over 100 µM and a TGI [22] of over 100 µM. It also gave a TGI [23] of over 100 µM, a TGI [24] of over 100 µM and a TGI [25] of over 100 µM. It also gave a TGI [56] of over 100 µM, a TGI [26] of over 100 µM and a TGI [27] of over 100 µM. The TGI [28] was over 100 µM, the TGI [29] was over 100 µM and the TGI [30] was over 100 µM. It also gave a TGI [31] of over 100 µM, a TGI [32] of over 100 µM and a TGI [33] of over 100 µM. The TGI [34] was over 100 µM, the TGI [35] was 32.2 µM and the TGI [36] was over 100 µM. For the same compound, the TGI [37] was 83.1 µM, the TGI [38] was over 100 µM and the TGI [39] was over 100 µM. The TGI [40] was over 100 µM, the TGI [41] was over 100 µM and the TGI [42] was 32.4 µM. The TGI [43] was over 100 µM, the TGI [44] was over 100 µM and the TGI [45] was over 100 µM. The TGI [46] was over 100 µM, the TGI [47] was 62.6 µM and the TGI [48] was over 100 µM. It also gave a TGI [49] of over 100 µM, a TGI [50] of over 100 µM and a TGI [51] of over 100 µM. It also gave a TGI [52] of over 100 µM and a TGI [58] of over 100 µM.
Compound `CCCCNC(=O)c1cc2c(cc1Cl)Sc1nccn1S2(=O)=O` has a TGI [1] of 63.7 µM, a TGI [2] of over 100 µM and a TGI [3] of over 100 µM. It also gave a TGI [4] of over 100 µM, a TGI [53] of over 100 µM and a TGI [5] of over 100 µM. The TGI [6] was over 100 µM, the TGI [7] was over 100 µM and the TGI [8] was over 100 µM. For the same compound, the TGI [9] was over 100 µM, the TGI [10] was 34.3 µM and the TGI [54] was over 100 µM. For the same compound, the TGI [11] was over 100 µM, the TGI [12] was over 100 µM and the TGI [13] was over 100 µM. For the same compound, the TGI [14] was over 100 µM, the TGI [15] was over 100 µM and the TGI [59] was over 100 µM. The TGI [55] was over 100 µM, the TGI [16] was over 100 µM and the TGI [18] was over 100 µM. For the same compound, the TGI [19] was over 100 µM, the TGI [20] was over 100 µM and the TGI [21] was over 100 µM. For the same compound, the TGI [22] was over 100 µM, the TGI [23] was over 100 µM and the TGI [24] was over 100 µM. It also gave a TGI [25] of over 100 µM, a TGI [56] of over 100 µM and a TGI [26] of over 100 µM. For the same compound, the TGI [27] was over 100 µM, the TGI [28] was over 100 µM and the TGI [29] was over 100 µM. For the same compound, the TGI [30] was over 100 µM, the TGI [31] was over 100 µM and the TGI [32] was over 100 µM. It also gave a TGI [33] of over 100 µM, a TGI [34] of over 100 µM and a TGI [35] of over 100 µM. The TGI [36] was over 100 µM, the TGI [37] was over 100 µM and the TGI [57] was over 100 µM. For the same compound, the TGI [38] was over 100 µM, the TGI [39] was over 100 µM and the TGI [40] was over 100 µM. It also gave a TGI [41] of over 100 µM, a TGI [42] of over 100 µM and a TGI [43] of over 100 µM. It also gave a TGI [44] of over 100 µM, a TGI [45] of over 100 µM and a TGI [46] of over 100 µM. For the same compound, the TGI [47] was over 100 µM, the TGI [48] was over 100 µM and the TGI [49] was over 100 µM. For the same compound, the TGI [50] was over 100 µM, the TGI [51] was over 100 µM and the TGI [52] was over 100 µM. The TGI [58] was over 100 µM.
